Measured values taken from US8754081B2, “Compositions and methods for inhibition of hepatocyte growth factor receptor c-Met signaling” (The United States of America as represented by the …, priority 2008, dated 2014).

Key:
B5/589 cells = assay: Total cell protein per well as index of compound cytotoxicity; type: cell-based, human; settings: over the dose range
Experimental: Intact cells cultured in multiwell plates were serum deprived for 24 to 48 h in the presence or absence of various concentrations of test compound for the final 16 h period. Replicate wells were used for all compounds tested. Cells were then rinsed briefly with PBS, stimulated with HGF (180 ng/ml) for 20 min at 37 C before lysis and protein extraction on ice with a buffer containing non-ionic detergent, protease and phosphatase inhibitors. Protein extracts were clarified by centrifugation, protein concentration was determined, and known quantities were then applied to streptavidin coated multiwell plates containing an immobilized biotinylated antibody specific for the c-Met ectodomain. c-Met activation, as reflected by receptor autophosphorylation, was measured using a Ruthenium (Ru)-labeled anti-phosphotyrosine detection monoclonal antibody (4G10, Chemicon). The amount of c-Met captured was measured in parallel using a c-Met specific detection antibody (AF276, R&D Systems); the signal obtained was plotted against a standard curve created using purified recombinant c-Met protein (358-MT, R&D Systems) to obtain c-Met content in absolute units. A tripropylamine Read Buffer was added to each well that emits light when an electric voltage is applied to the bottom of the well; light measurements were made by CCD camera using Meso Scale Discovery Sector Imager 2400 (Meso Scale Discovery, Gaithersburg, Md.). Raw values are presented as light signal intensity. Phospho-c-Met intensity measurements were normalized to c-Met intensity measurements to obtain phospho-c-Met/c-Met protein ratio; c-Met protein measurements were normalized to total cell protein concentrations to detect effects on c-Met expression level. Total cell protein amount per well was also used as an index of compound cytotoxicity. […] Vehicle controls were included as needed, typically at the concentration present in the highest compound concentration tested.

c-Met TK domain = assay: Cell-free assay of c-Met TK activation; type: biochemical; settings: preliminary experiments
Excerpt: Furthermore the biological screening of the 70 available compounds predicted to have activity by virtual screening is described. Two assays were developed to detect c-Met signaling inhibitors: an intact cells assay that provided information on receptor autophosphorylation state as well as cellular expression levels, and a second, cell-free assay, for identifying direct inhibitors of c-Met TK activation in vitro. Both assays utilize electrochemiluminescence detection technology; in contrast to conventional enzyme-linked detection methods, this technology uses antibodies (or other probes) tagged with Ruthenium. Ruthenium tagged antibody binding is then detected by light emission, which occurs when voltage is applied in the presence of specific redox reagents. […] Results from the assay were normalized to standard curves prepared using recombinantly expressed, purified c-Met protein to maximize reproducibility and to provide absolute values of cellular receptor content and kinase inhibition.

## CC1=C(C#N)C(=O)N(Cc2ccccc2)C(=O)C1=CNc1cc(Cl)ccc1O [compound 48951396, 1-Benzyl-5-[(5-chloro-2-hydroxy-phenylamino)-methylene]-4-methyl-2,6-dioxo-1,2,5,6-tetrahydro-pyridine-3-carbonitrile]
B5/589 cells
  decrease in total cellular protein: No significant decrease
c-Met TK domain
  interaction with c-Met TK domain: interacts directly with the c-Met TK domain
